Experimental data published in paper PMC7729925, “Selective hepatitis B and D virus entry inhibitors from the group of pentacyclic lupane-type betulin-derived triterpenoids” (Scientific Reports, 2020).
Where “and” joins values, the source holds several entries; their conditions need not be identical. Identical values can stand only once.

Experiments:
NTCP [1] = molecular target: T1, NTCP (Homo sapiens, UniProt Q14973); assay: [3H]preS1 (myr-preS1_2-48 lipopeptide) binding inhibition in NTCP-HEK293 cells; conditions: for IC50: NTCP-HEK293 cells; for Selectivity index: ratio of mean IC50 [3H]TC transport inhibition / IC50 [3H]preS1 binding inhibition
T1 construct: expressed in transfected cells
T1 sequence (Q14973 1-349): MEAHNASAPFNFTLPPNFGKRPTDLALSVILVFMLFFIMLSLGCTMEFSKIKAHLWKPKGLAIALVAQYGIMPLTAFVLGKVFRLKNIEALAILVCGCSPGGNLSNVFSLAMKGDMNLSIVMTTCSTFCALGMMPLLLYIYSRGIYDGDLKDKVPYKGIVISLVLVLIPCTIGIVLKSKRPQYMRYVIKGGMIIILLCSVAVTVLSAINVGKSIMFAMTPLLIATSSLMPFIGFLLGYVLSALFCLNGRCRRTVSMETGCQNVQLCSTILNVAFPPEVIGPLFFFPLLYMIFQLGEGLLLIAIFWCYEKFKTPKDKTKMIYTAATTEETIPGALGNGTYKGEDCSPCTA
Description: (§1) The major goal of the present study was to analyze in parallel the effect of inhibitors on both, bile acid transport via NTCP and myr-preS1_2-48 lipopeptide binding to NTCP in a cell culture system. […] NTCP-HEK293 cells were seeded onto 96-well plates and were incubated with tetracycline in order to induce expression of the human NTCP protein. […] Experiments were performed with solvent alone (set to 100%) and with increasing concentrations of the indicated inhibitors. […] Half maximal inhibitory concentrations (IC50) were calculated by nonlinear regression analysis using the equation log(inhibitor) versus response (GraphPad Prism). […] Data represent means ± SD of quadruplicate determinations of representative experiments. […] In parallel, [^3H]preS1 peptide binding experiments were performed with a tritium-labelled myr-preS1_2-48 lipopeptide -HBV subgenotype D3- that was purchased from Pharmaron (120 Ci/mmol, 1 mCi/ml, Cardiff, UK). […] Experiments were stopped after 10 min by two-times washing with ice-cold PBS. For 0% uptake/binding control, the NTCP-HEK293 cells were not induced with tetracycline (-tet). […] Transport rates and [^3H]preS1 binding were determined in counts per minute (cpm). […] IC50 values were calculated from quadruplicate determinations by GraphPad Prism 6 (GraphPad, San Diego, CA, USA).

NTCP [2] = molecular target: T1, NTCP; assay: [3H]TC transport (bile acid uptake) inhibition in NTCP-HEK293 cells; format: cell-based; conditions: for [3H]TC transport inhibition (in words): 0.1–1,000 µM
Description: as §1

[3] = IC50 ([3H]preS1 binding), 95% confidence interval, inhibition of 5 nM [3H]preS1 binding, 10 min, 37 °C
[4] = 95% confidence interval, inhibition of 1 µM [3H]TC uptake, NTCP-HEK293 cells, 10 min, 37 °C, read-out: IC50 ([3H]TC uptake)
[5] = 95% confidence interval, inhibition of 5 nM [3H]preS1 binding, 10 min, 37 °C, read-out: IC50 ([3H]preS1 binding)
[6] = mean IC50, 5 nM [3H]preS1, standard pH 7.4, read-out: IC50 [3H]preS1 binding inhibition
[7] = mean IC50, […] µM [3H]TC, NTCP-HEK293 cells, standard pH 7.4, read-out: IC50 [3H]TC transport inhibition

SMILES | IC50 (NTCP [2]; [4]) [µM] | IC50 (NTCP [1]; [5]) [µM] | IC50 (NTCP [1]; [6]) | Selectivity index (NTCP [1]) | other results
C=C(C)[C@@H]1CC[C@]2(C)CC[C@]3(C)[C@H](CC[C@@H]4[C@@]5(C)CC[C@H](O)C(C)(C)[C@@H]5CC[C@]43C)[C@@H]12 [Compound 3, Lupeol] | > 1000 | – | – | – | IC50 (NTCP [1]; [3]): 26.9 to 97.9 µM; IC50 (NTCP [2]): > 1000 µM
C=C(C)[C@@H]1CC[C@]2(C(=O)OC)CC[C@]3(C)[C@H](CC[C@@H]4[C@@]5(C)CC[C@H](O)C(C)(C)[C@@H]5CC[C@]43C)[C@@H]12 [Compound 5, Methyl betulinate] | – | – | – | – | IC50 (NTCP [1]; [3]): 12.7 to 83.5 µM; IC50 (NTCP [2]; read-out: IC50 ([3H]TC uptake)): 47.1 to 100 µM
C=C(C)C1CCC2(C=NO)CCC3(C)C(CCC4C5(C)CCC(O)C(C)(C)C5CCC43C)C12 (stereo not shown) [Compound 6, Betulinaldehyde oxime] | 360 to 759 | 6.61 to 18.3 | 11 µM | 48 | –
C=C(C)[C@@H]1CC[C@]2(COC(=O)CBr)CC[C@]3(C)[C@H](CC[C@@H]4[C@@]5(C)CC[C@H](O)C(C)(C)[C@@H]5CC[C@]43C)[C@@H]12 [Compound 7, 28-O-(Bromoacetyl)betulin] | 63.5 to 126 | 5.28 to 11.1 | – | 11 | –
C=C(C)[C@@H]1CC[C@]2(COC(=O)CCC(=O)O)CC[C@]3(C)[C@H](CC[C@@H]4[C@@]5(C)CC[C@H](O)C(C)(C)[C@@H]5CC[C@]43C)[C@@H]12 [Compound 8, 28-O-Succinoylbetulin] | 5.35 to 10.6 | 1.61 to 4.11 | 2 to 3 µM | 3 | IC50 [3H]preS1 binding inhibition at pH 5.5 versus pH 7.4 (NTCP [1]; pH lowered from 7.4 to 5.5): did not change; IC50 (NTCP [2]; pH shift experiment, pH 5.5 (DMEM acidified with HCl), read-out: IC50 [3H]TC uptake inhibition at pH 5.5): 200 µM; IC50 (NTCP [2]; pH shift experiment, pH 7.4, read-out: IC50 [3H]TC uptake inhibition at pH 7.4): 8 µM
C=C(C)[C@@H]1CC[C@]2(COC(=O)CCC(=O)O)CC[C@]3(C)[C@H](CC[C@@H]4[C@@]5(C)CC[C@H](OC(=O)CCC(=O)O)C(C)(C)[C@@H]5CC[C@]43C)[C@@H]12 [Compound 9, 3,28-Di-O-succinoylbetulin] | 3.11 to 5.02 | 2.94 to 10.1 | < 10 µM | 1 | –
C=C(C)[C@@H]1CC[C@]2(COC(=O)CC(C)(C)CC(=O)O)CC[C@]3(C)[C@H](CC[C@@H]4[C@@]5(C)CC[C@H](O)C(C)(C)[C@@H]5CC[C@]43C)[C@@H]12 [Compound 10, 28-O-(3,3-Dimethylglutaroyl)betulin] | 3 to 5.91 | 2.48 to 7.02 | < 10 µM | 1 | –
C=C(C)[C@@H]1CC[C@]2(C(=O)O)CC[C@]3(C)[C@H](CC[C@@H]4[C@@]5(C)CC[C@H](OC(=O)CC(C)(C)CC(=O)O)C(C)(C)[C@@H]5CC[C@]43C)[C@@H]12 [Compound 11, 3-O-(3,3-Dimethylglutaroyl)betulinic acid] | 3.08 to 4.53 | 3 to 5.21 | – | 1 | –
C=C(C)[C@@H]1CC[C@]2(COC(=O)CC(C)(C)CC(=O)O)CC[C@]3(C)[C@H](CC[C@@H]4[C@@]5(C)CC[C@H](OC(=O)CC(C)(C)CC(=O)O)C(C)(C)[C@@H]5CC[C@]43C)[C@@H]12 [Compound 12, 3,28-Di-O-(3,3-dimethylglutaroyl)betulin] | 4.17 to 10.7 | 4.97 to 10.1 | – | 1 | –
C=C(C)[C@@H]1CC[C@]2(COC3CCCCO3)CC[C@]3(C)[C@H](CC[C@@H]4[C@@]5(C)CC[C@H](O)C(C)(C)[C@@H]5CC[C@]43C)[C@@H]12 (stereo partly shown) [Compound 13, 28-(Tetrahydro-2H-pyran-2-yl)betulin] | 116 to 628 | 9.34 to 19.5 | 11 to 50 µM | 19 | –
C=C(C)[C@@H]1CC[C@]2(COC(=O)c3cccnc3)CC[C@]3(C)[C@H](CC[C@@H]4[C@@]5(C)CC[C@H](O)C(C)(C)[C@@H]5CC[C@]43C)[C@@H]12 [Compound 14, 28-O-Nicotinoylbetulin] | 185 to 532 | 36.5 to 109 | – | 5 | –
C=C(C)[C@@H]1CC[C@]2(COC(=O)/C=C/c3ccccc3)CC[C@]3(C)[C@H](CC[C@@H]4[C@@]5(C)CC[C@H](O)C(C)(C)[C@@H]5CC[C@]43C)[C@@H]12 [Compound 15, 28-O-Cinnamoylbetulin] | 72.4 to 236 | 10.9 to 31.8 | – | 7 | –
C=C(C)[C@@H]1CC[C@]2(COC(=O)CCc3ccccc3)CC[C@]3(C)[C@H](CC[C@@H]4[C@@]5(C)CC[C@H](OC(=O)CCc6ccccc6)C(C)(C)[C@@H]5CC[C@]43C)[C@@H]12 [Compound 16, 3,28-Di-O-(dihydrocinnamoyl)betulin] | 176 to 1230 | 24.8 to 229 | – | 6 | –
C=C(C)[C@@H]1CC[C@]2(C=O)CC[C@]3(C)[C@H](CC[C@@H]4[C@@]5(C)CCC(=O)C(C)(C)[C@@H]5CC[C@]43C)[C@@H]12 [Compound 18, Betulonaldehyde] | 88.5 to 175 | – | – | – | –
C=C(C)[C@@H]1CC[C@]2(C(=O)O)CC[C@]3(C)[C@H](CC[C@@H]4[C@@]5(C)CC[C@H](OC(C)=O)C(C)(C)[C@@H]5CC[C@]43C)[C@@H]12 [Compound 21, 3-O-Acetylbetulinic acid] | 7.19 to 30.3 | 1.81 to 5.31 | 2 to 3 µM and < 10 µM | 5 | –
C=C(C)[C@@H]1CC[C@]2(CO)CC[C@]3(C)[C@H](CC[C@@H]4[C@@]5(C)CC[C@H](OC(C)=O)C(C)(C)[C@@H]5CC[C@]43C)[C@@H]12 [Compound 22, 3-O-Acetylbetulin] | 36.5 to 152 | 20.6 to 87.4 | – | 2 | –
C=C(C)[C@@H]1CC[C@]2(COC3CCCCO3)CC[C@]3(C)[C@H](CC[C@@H]4[C@@]5(C)CC[C@H](OC(C)=O)C(C)(C)[C@@H]5CC[C@]43C)[C@@H]12 (stereo partly shown) [Compound 23, 3-O-Acetyl-28-(tetrahydro-2H-pyran-2-yl)betulin] | 119 to 947 | 11 to 114 | – | 10 | –
C=C(C)C1CCC2(COC(C)=O)CCC3(C)C(CCC4C5(C)CCC(OC(C)=O)C(C)(C)C5CCC43C)C12 (stereo not shown) [Compound 24, 3,28-Di-O-acetylbetulin] | > 1000 | 52.6 to 756 | 199 µM | > 5 | [3H]TC transport inhibition (in words) (NTCP [2]; NTCP-HEK293 cells): no transport inhibition at all; IC50 (NTCP [2]; [7]): > 1000 µM
C=C(CO)C1CCC2(COC(C)=O)CCC3(C)C(CCC4C5(C)CCC(OC(C)=O)C(C)(C)C5CCC43C)C12 (stereo not shown) [Compound 25, 3,28-Di-O-acetyl-29-hydroxybetulin] | > 1000 | 5.29 to 13 | < 10 µM and 8 µM | – | [3H]TC transport inhibition (in words) (NTCP [2]; NTCP-HEK293 cells): no transport inhibition at all; IC50 (NTCP [2]; [7]): > 1000 µM
CC(=O)OC[C@]12CC[C@@H](C3(C)CO3)[C@@H]1[C@H]1CC[C@@H]3[C@@]4(C)CC[C@H](OC(C)=O)C(C)(C)[C@@H]4CC[C@@]3(C)[C@]1(C)CC2 (stereo partly shown) [Compound 26, 3,28-Di-O-acetyl-20,30-epoxybetulin] | 332 to 891 | 26.5 to 73 | – | 12 | –
C=C(C)C1CCC2(CO)CCC3(C)C(CCC4C5(C)CCC(OC(=O)C=Cc6ccc(O)c(O)c6)C(C)(C)C5CCC43C)C12 (stereo not shown) [Compound 27, 3-O-Caffeoylbetulin] | 85 to 195 | 3.35 to 10 | 6 µM | 22 | –
CC1(COc2ccc(CC3SC(=O)NC3=O)cc2)CCCCC1 (stereo not shown) [ciglitazone, reference compound] | – | – | 1.3 µM | – | –
